We go through 15 compounds from PubChem BioAssay (NCI).

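Dose response: 5 concentrations. Exposure: 48 h. Format: 96-well plates. Endpoint: linear interpolation; highest concentration if not reached. The concentration for full growth arrest is given as TGI.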

Some test systems named below: SK-MEL-2 melanoma; UACC-257 melanoma; SK-MEL-5 melanoma; KM12 colon; A549 NSCLC; UACC-62 melanoma; OVCAR-8 ovarian; NCI-H522 lung; SNB-75 CNS.
Holding throughout (test): NCI tumour cell line growth inhibition, 48 h

As to `Cc1ccc(C2=C(c3ccccc3)C(O)(c3ccc(C)cc3)C(c3ccccc3)=C2c2ccc(C)cc2)cc1`, the TGI with SK-MEL-2 melanoma, in the test with UACC-257 melanoma, in the test on SK-MEL-5 melanoma, with KM12 colon, in the test with A549 NSCLC and in the test on UACC-62 melanoma was > 100 µM each time. The TGI in the test on OVCAR-8 ovarian was > 100 µM.
With `S=C(Nc1ccccc1)N1N=C2c3ccccc3CC[C@H]2[C@@H]1c1ccccc1`, the TGI in the test with SK-MEL-2 melanoma was > 100 µM; in the test on NCI-H522 lung it was 4.12 µM; in the test with UACC-257 melanoma it was > 100 µM; in the test on KM12 colon, > 100 µM; with A549 NSCLC, > 100 µM; in the test with UACC-62 melanoma it was > 100 µM. In the test on OVCAR-8 ovarian, the TGI was > 100 µM.
`O=c1/c(=C/c2ccc3c(c2)OCO3)sc2nnc(-c3ccco3)n12`: the TGI in the test with SK-MEL-2 melanoma was > 100 µM; in the test on NCI-H522 lung, > 100 µM; in the test on UACC-257 melanoma, > 100 µM; in the test on SK-MEL-5 melanoma, > 100 µM; with SNB-75 CNS, 71.2 µM; with KM12 colon, > 100 µM. Moreover, the TGI in the test with A549 NSCLC, in the test on UACC-62 melanoma and in the test on OVCAR-8 ovarian was > 100 µM throughout.
In the case of `c1ccc(C2N3CCCCC3[C@@H]3c4[nH]c5ccccc5c4CCN23)cc1` (stereo not given in full), the TGI with SK-MEL-2 melanoma, in the test on UACC-257 melanoma, with SK-MEL-5 melanoma, in the test on SNB-75 CNS, in the test on A549 NSCLC and in the test with UACC-62 melanoma was > 100 µM throughout. Further, the TGI in the test with OVCAR-8 ovarian was > 100 µM.
On to `Cc1cc(NCCCCCCNc2cc(C)nc3ccc(Cl)cc23)c2cc(Cl)ccc2n1`, for which the TGI with SK-MEL-2 melanoma amounted to 46 µM; with NCI-H522 lung, 30.7 µM; with UACC-257 melanoma, 44.9 µM; with SK-MEL-5 melanoma, 32.8 µM; in the test with SNB-75 CNS, 35.5 µM; with KM12 colon it was 30.9 µM. The TGI turned out to be 45.9 µM with A549 NSCLC, 36 µM in the test on UACC-62 melanoma and 39.1 µM in the test on OVCAR-8 ovarian.
With `O=C(Nc1c(Cl)cc([N+](=O)[O-])cc1Cl)/C(=N\Nc1cccc(Cl)c1)c1c(O)c2ccccc2oc1=O`, the TGI in the test on SK-MEL-2 melanoma, in the test on NCI-H522 lung, in the test with UACC-257 melanoma, in the test on SK-MEL-5 melanoma, in the test with KM12 colon and in the test with A549 NSCLC was > 100 µM in each case. Further, the TGI in the test on UACC-62 melanoma and in the test on OVCAR-8 ovarian was > 100 µM throughout.
For `CSc1ccc2c(cc1=O)[C@@H](NC(=O)c1ccc(F)cc1)CCc1cc(O)c(O)c(O)c1-2`, the TGI with SK-MEL-2 melanoma, with NCI-H522 lung, in the test with UACC-257 melanoma, in the test with SK-MEL-5 melanoma, in the test with SNB-75 CNS and in the test with KM12 colon was > 100 µM throughout. The TGI in the test with A549 NSCLC, with UACC-62 melanoma and with OVCAR-8 ovarian was > 100 µM each time.
Consider `CC[C@@]1(O)C(=O)OCc2c1cc1n(c2=O)Cc2c-1nc1ccccc1c2/C=N\NC(=O)C(C)N` (stereo not given in full), for which the TGI is > 100 µM in the test with SK-MEL-2 melanoma; 25.8 µM in the test with NCI-H522 lung; 28.7 µM with UACC-257 melanoma; 1.78 µM in the test with SK-MEL-5 melanoma; 4.33 µM with SNB-75 CNS; > 100 µM in the test with KM12 colon. Also, the TGI with A549 NSCLC is > 26.5 µM; in the test on UACC-62 melanoma, 0.305 µM; with OVCAR-8 ovarian it was 5.26 µM.
For `CCSc1nc2n(c(=S)n1)CCN2C`, the TGI in the test on SK-MEL-2 melanoma stood at 41.7 µM; in the test on NCI-H522 lung, 19.3 µM; with UACC-257 melanoma, 25.5 µM; in the test on SK-MEL-5 melanoma, 30 µM; in the test on SNB-75 CNS it was 30.8 µM; in the test with KM12 colon it was 52.3 µM. Also, the TGI in the test with A549 NSCLC came to 61.3 µM; in the test with UACC-62 melanoma, 25.8 µM; with OVCAR-8 ovarian, 64.7 µM.
On to `C/C(=N/N)c1ccc2[nH]c3c(C)cc([N+](=O)[O-])c(C)c3c2c1`, for which the TGI in the test on SK-MEL-2 melanoma is 26.3 µM; in the test on NCI-H522 lung, 36.7 µM; with UACC-257 melanoma it was 48.6 µM; with SK-MEL-5 melanoma, 18.1 µM; in the test with SNB-75 CNS, > 100 µM; with A549 NSCLC it was 40.6 µM. For the same compound, the TGI in the test on OVCAR-8 ovarian turned out to be 26.5 µM.
For the compound `CCC/C(=N\NC(=O)c1cc2ccccc2cc1O)C(CC)C(=O)CCC(=O)N(Cc1ccccc1)Cc1ccccc1` (stereo not given), the TGI in the test with SK-MEL-2 melanoma was 77.8 µM; in the test on NCI-H522 lung, > 100 µM; in the test with UACC-257 melanoma, > 100 µM; in the test with SK-MEL-5 melanoma, 60.9 µM; in the test on SNB-75 CNS, > 100 µM; in the test with KM12 colon it was > 100 µM. Also, the TGI with A549 NSCLC was > 100 µM; in the test on UACC-62 melanoma, 70 µM; in the test with OVCAR-8 ovarian it was > 100 µM.
Turning to `COc1cc(/C=C(\C#N)c2ccccn2)cc(Br)c1O`, the TGI in the test with SK-MEL-2 melanoma, with NCI-H522 lung, in the test on UACC-257 melanoma, with SK-MEL-5 melanoma, in the test with SNB-75 CNS and in the test with KM12 colon was > 100 µM each time. In addition, the TGI in the test on A549 NSCLC, in the test on UACC-62 melanoma and with OVCAR-8 ovarian was > 100 µM each time.
In the case of `Nc1ccc(N)c2c1C(=O)c1c(N)ccc(N)c1C2=O`, the TGI is > 100 µM with SK-MEL-2 melanoma; > 89.3 µM in the test on NCI-H522 lung; > 100 µM in the test on UACC-257 melanoma; > 100 µM with SK-MEL-5 melanoma; > 77.7 µM in the test on SNB-75 CNS; > 100 µM with KM12 colon. The TGI in the test with A549 NSCLC, with UACC-62 melanoma and with OVCAR-8 ovarian was > 100 µM throughout.
As to `O=C(CSc1nnc(-c2ccc(N=Cc3ccc(Cl)cc3)cc2)o1)Nc1cccc(Cl)c1`, the TGI in the test on SK-MEL-2 melanoma, in the test with NCI-H522 lung, in the test on UACC-257 melanoma, in the test with SK-MEL-5 melanoma, in the test with SNB-75 CNS and in the test on KM12 colon was > 100 µM each time. Further, the TGI in the test with A549 NSCLC, with UACC-62 melanoma and in the test on OVCAR-8 ovarian was > 100 µM each time.
For `COc1cc(C=O)c(-c2cc3c(cc2C=O)OCO3)c(OC)c1OC`, the TGI in the test with SK-MEL-2 melanoma is 190 µM; in the test with NCI-H522 lung it was 119 µM; in the test with UACC-257 melanoma, > 290 µM; in the test with SK-MEL-5 melanoma, > 290 µM; in the test with KM12 colon, 159 µM; in the test on A549 NSCLC, > 290 µM. Moreover, the TGI in the test on UACC-62 melanoma and in the test with OVCAR-8 ovarian was > 290 µM each time.
